Results reported in the NIST ThermoML archive (doi:10.1021/je700339f).

Test: xn = mol fraction of the nth substance listed
Conditions: 298 K, Liquid

ClCCCCCl [1,4-dichlorobutane] + CC(=O)N(C)C
mass density [kg/m3]
Conditions	x2 = 0.0975	x2 = 0.2001	x2 = 0.2996	x2 = 0.4017	x2 = 0.5009	x2 = 0.5981	x2 = 0.6987	x2 = 0.801	x2 = 0.9012
100 kPa	1116.3	1097.8	1079.3	1060	1040.7	1021.7	1001.1	980	958.6
500 kPa	1116.6	1098.2	1079.6	1060.3	1041	1022	1001.3	980.3	958.8
1000 kPa	1117	1098.6	1080	1060.6	1041.4	1022.3	1001.7	980.6	959.2
1500 kPa	1117.4	1098.9	1080.3	1061	1041.7	1022.7	1002	980.8	959.5
2000 kPa	1117.7	1099.3	1080.7	1061.3	1042	1023	1002.3	981.2	959.8
2500 kPa	1118.1	1099.6	1081	1061.7	1042.4	1023.3	1002.8	981.6	960.1
3000 kPa	1118.5	1100.1	1081.4	1062.1	1042.7	1023.7	1003.1	982	960.4
3500 kPa	1118.9	1100.4	1081.8	1062.4	1043.1	1024	1003.4	982.2	960.7
4000 kPa	1119.3	1100.8	1082.1	1062.8	1043.4	1024.4	1003.7	982.6	961
4500 kPa	1119.6	1101.2	1082.5	1063.2	1043.7	1024.8	1004	982.9	961.3
5000 kPa	1120	1101.5	1082.8	1063.4	1044.1	1025	1004.4	983.2	961.6
5500 kPa	1120.4	1101.9	1083.2	1063.8	1044.5	1025.4	1004.7	983.4	961.9
6000 kPa	1120.7	1102.2	1083.6	1064.2	1044.9	1025.6	1005	983.8	962.2
6500 kPa	1121.1	1102.6	1083.9	1064.5	1045.2	1026	1005.3	984.1	962.6
7000 kPa	1121.5	1102.9	1084.3	1064.9	1045.5	1026.4	1005.7	984.4	962.9
7500 kPa	1121.9	1103.2	1084.6	1065.2	1045.8	1026.7	1006	984.8	963.1
8000 kPa	1122.2	1103.6	1085	1065.5	1046.2	1027	1006.3	985	963.5
8500 kPa	1122.5	1104	1085.4	1065.9	1046.6	1027.3	1006.6	985.4	963.7
9000 kPa	1123	1104.3	1085.7	1066.2	1046.9	1027.7	1007	985.6	964
9500 kPa	1123.2	1104.7	1086	1066.6	1047.2	1028	1007.3	986	964.3
10000 kPa	1123.7	1105.2	1086.4	1067	1047.6	1028.5	1007.6	986.3	964.7
10500 kPa	1124.1	1105.5	1086.8	1067.3	1047.9	1028.8	1008	986.7	965
11000 kPa	1124.4	1105.8	1087.2	1067.6	1048.2	1029.1	1008.3	986.9	965.2
11500 kPa	1124.7	1106.2	1087.5	1068	1048.6	1029.5	1008.6	987.3	965.6
11900 kPa	–	–	–	–	–	–	–	987.6	–
12000 kPa	1125.1	1106.6	1087.8	1068.3	1048.9	1029.8	1008.9	–	965.9
12500 kPa	1125.5	1106.8	1088.2	1068.7	1049.2	1030.1	1009.3	987.9	966.3
13000 kPa	1125.8	1107.2	1088.5	1069	1049.6	1030.4	1009.6	988.2	966.5
13400 kPa	–	–	–	1069.3	1049.9	–	–	–	–
13500 kPa	1126.1	1107.6	1088.9	–	–	1030.7	1009.9	988.5	966.8
14000 kPa	1126.5	1107.9	1089.1	1069.7	1050.3	1031	1010.2	988.8	967.1
14500 kPa	1126.8	1108.2	1089.5	1070	1050.6	1031.4	1010.5	989.1	967.4
15000 kPa	1127.2	1108.6	1089.9	1070.3	1050.9	1031.6	1010.8	989.4	967.7
15500 kPa	1127.6	1108.9	1090.2	1070.6	1051.2	1032	1011.1	989.7	968
16000 kPa	1127.9	1109.3	1090.5	1071	1051.5	1032.3	1011.4	990	968.2
16400 kPa	1128.2	–	–	–	1051.8	–	–	–	–
16500 kPa	–	1109.6	1090.9	1071.4	–	1032.6	1011.7	990.2	968.5
17000 kPa	1128.6	1109.9	1091.2	1071.6	1052.1	1032.9	1012	990.5	968.7
17500 kPa	1129	1110.3	1091.6	1072	1052.4	1033.2	1012.4	990.8	969.1
17900 kPa	–	–	–	–	1052.7	–	–	–	–
18000 kPa	1129.3	1110.6	1091.8	1072.3	–	1033.5	1012.7	991.1	969.3
18500 kPa	1129.6	1110.9	1092.2	1072.6	1053.1	1033.8	1013	991.4	969.6
19000 kPa	1130	1111.3	1092.5	1073	1053.5	1034.2	1013.3	991.8	969.9
19500 kPa	1130.3	1111.7	1092.8	1073.3	1053.8	1034.5	1013.6	992	970.1
20000 kPa	1130.8	1112	1093.3	1073.8	1054.1	1034.8	1014	992.4	970.5
